Laboratory results from paper PMC11547452, “Synthesis of New Pyrazolo[3,4-d]pyrimidine Derivatives: NMR Spectroscopic Characterization, X-Ray, Hirshfeld Surface Analysis, DFT, Molecular Docking, and Antiproliferative Activity Investigations” (Molecules, 2024).

Assays:
[1] = system: HCT 116, HepG2, and MCF-7 cell lines; assay: MTT antiproliferative assay, summary over the tested cell lines; format: cell-based; settings: across the tested cancer cell lines
Description: (§1) The antiproliferative activity of P1–P4 was evaluated by the MTT standard assay and sunitinib (a well-known FDA-approved multi-kinase inhibitor) as a reference against HCT 116, HepG2, and MCF-7 cell lines, and WI38 normal cell line. […] The antiproliferative activity of P1–P4 was assessed by using an MTT standard assay and sunitinib drug towards HCT 116, HepG2, MCF-7 cells, and WI38 normal cell line using the previously described methodology.

[2] = MTT cytotoxicity assay, WI38 normal cell line; format: cell-based; settings: human, WI38 normal cells; WI38 normal cell line; MTT; three different experiments; read-out: In Vitro Cytotoxicity IC50
Description: as §1

[3] = system: WI38 normal cell line; assay: MTT cytotoxicity assay, WI38 normal cell line; format: cell-based; settings: cancer cell lines vs WI38 normal cell line; formula not given
Description: as §1

[4] = system: HepG2; assay: MTT antiproliferative assay, HepG2; format: cell-based; settings: Homo sapiens, three different experiments, read-out: In Vitro Cytotoxicity IC50
Description: as §1

[5] = system: MCF-7; assay: MTT antiproliferative assay, MCF-7; format: cell-based; settings: Homo sapiens, MCF7, three different experiments, read-out: In Vitro Cytotoxicity IC50
Description: as §1

[6] = system: HCT 116; assay: MTT antiproliferative assay, HCT 116; format: cell-based; settings: Homo sapiens, three different experiments, read-out: In Vitro Cytotoxicity IC50
Description: as §1

SMILES	melting point	IC50 [1]	IC50 [2]	Selectivity Index [3]	IC50 [4]	IC50 [5]	IC50 [6]
C#CCn1cnc2c(c(C)nn2-c2ccccc2)c1=O [Compound P3, 3-Methyl-1-phenyl-5-(prop-2-yn-1-yl)-1,5-dihydro-4H-pyrazolo[3,4-d]pyrimidin-4-one]	155 to 157 °C	> 67 µM	52.5 ± 3.1 µM	1.67	88.6 ± 4.7 µM	85.2 ± 4.4 µM	89.9 ± 4.5 µM
Cc1nn(-c2ccccc2)c2ncn(CC(=O)c3ccccc3)c(=O)c12 [Compound P4, 3-Methyl-5-(2-oxo-2-phenylethyl)-1-phenyl-1,5-dihydro-4H-pyrazolo[3,4-d]pyrimidin-4-one]		> 67 µM	44 ± 2.6 µM		66.8 ± 3.8 µM	> 100 µM	92.5 ± 4.9 µM
CCN(CC)CCNC(=O)c1c(C)[nH]c(/C=C2\C(=O)Nc3ccc(F)cc32)c1C [Sunitinib, sunitinib, reference compound]			55.6 ± 3.3 µM	0.30			

Continued, in another order:

melting point	IC50 [1]	SMILES	IC50 [2]	Selectivity Index [3]	IC50 [4]	IC50 [5]	IC50 [6]
153 to 155 °C	22.7 to 40.8 µM	Cc1nn(-c2ccccc2)c2nc[nH]c(=O)c12 [Compound P1, 3-methyl-1-phenyl-1,5-dihydro-4H-pyrazolo[3,4-d]pyrimidin-4-one]	85.7 ± 4.7 µM		22.7 ± 1.7 µM	36.3 ± 2.6 µM	28.9 ± 2.1 µM
143 to 145 °C	22.7 to 40.8 µM	Cc1nn(-c2ccccc2)c2ncn(C)c(=O)c12 [Compound P2, 3,5-Dimethyl-1-phenyl-1,5-dihydro-4H-pyrazolo[3,4-d]pyrimidin-4-one]	> 100 µM		31.9 ± 2.1 µM	40.8 ± 2.4 µM	38.7 ± 2.3 µM
